How the values were obtained:
BALB/3T3 = experiment: Antiproliferative activity against mouse BALB/3T3 cells assessed as reduction in cell viability incubated for 120 hrs by MTT assay; format: cell-based; conditions: BALB/3T3, 120 h
[1] = Selectivity index, ratio of IC50 of mouse BALB/3T3 cells to IC50 of human A549 cells
A549 = experiment: Antiproliferative activity against human A549 cells assessed as reduction in cell viability incubated for 120 hrs by MTT assay; format: functional, cell-based; conditions: A549, 120 h
[2] = Selectivity index, ratio of IC50 of mouse BALB/3T3 cells to IC50 of human ALL5 cells
[3] = Selectivity index, ratio of IC50 of mouse BALB/3T3 cells to IC50 of human LoVo/DX cells; format: toxicity; conditions: BALB/3T3 cells versus LoVo/DX cells, read-out: Ratio IC50
[4] = Antiproliferative activity against human LoVo/DX cells assessed as reduction in cell viability incubated for 120 hrs by MTT assay; format: functional, cell-based
[5] = Selectivity index, ratio of IC50 of mouse BALB/3T3 cells to IC50 of human MCF7 cells; format: toxicity; conditions: BALB/3T3 cells versus MCF7 cells, read-out: Ratio IC50
LoVo = experiment: Antiproliferative activity against human LoVo cells assessed as reduction in cell viability incubated for 120 hrs by MTT assay; format: functional, cell-based
MCF7 = experiment: Antiproliferative activity against human MCF7 cells assessed as reduction in cell viability incubated for 120 hrs by MTT assay; format: functional, cell-based; conditions: MCF7, 120 h
[6] = Resistance index, ratio of IC50 of human LoVo/DX cells to IC50 of human LoVo cells; format: functional
[7] = Antiproliferative activity against human ALL5 cells assessed as reduction in cell viability incubated for 120 hrs by MTT assay; format: functional, cell-based; conditions: ALL5, 120 h
[8] = Selectivity index, ratio of IC50 of mouse BALB/3T3 cells to IC50 of human LoVo cells; format: toxicity; conditions: BALB/3T3 cells versus LoVo cells, read-out: Ratio IC50

Row | IC50 (A549) [nM] | IC50 (LoVo) [nM] | IC50 (MCF7) [nM] | Structure (SMILES) | IC50 (BALB/3T3) [nM] | Ratio IC50 [1] | Ratio IC50 [2] | selectivity ratio [3] | IC50 [4] [nM] | selectivity ratio [5] | Ratio IC50 [6] | IC50 [7] [nM] | selectivity ratio [8]
1 | 881 | 482 | 957 | CCCCCCCCCC(=O)N[C@H]1CCc2c(Br)c(OC)c(OC)c(OC)c2-c2ccc(SC)c(=O)cc21 | 98.4 | 0.1 | 0.5 | 0.1 | 867 | 0.1 | 1.8 | 196 | 0.2
2 | 99.1 | 53.8 | 97.3 | CCN(CC)C(=O)N[C@H]1CCc2c(Br)c(OC)c(OC)c(OC)c2-c2ccc(SC)c(=O)cc21 | 80.4 | 0.8 | 1.5 | 0.1 | 621 | 0.8 | 11.6 | 55.3 | 1.5
